Test results as given in PubChem BioAssay AID328 (DTP/NCI, 2004).
Several values for one entry are separate records, joined by “and”; a condition that tells them apart may be missing. Equal entries are not always repeated. Inconclusive results and toxic doses are left out. The calls were made as follows: active = survival T/C of 150% or more; inactive = T/C below 125% in these data.

Key:
[1] = test system: BDF1 mice, P388 leukemia ip, median survival T/C; assay: NCI In Vivo Anticancer Drug Screen. Data for tumor model P388 Leukemia (intraperitoneal) in B6D2F1 (BDF1) mice; details: endpoint: median survival time, higher = longer survival
Outline: (§1)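 Compound-treated tumour-bearing mice were compared with vehicle-treated controls. Survival was recorded, and the value is the treated-group measurement divided by the control-group measurement (T/C).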

[2] = test system: BDF1 mice, P388 leukemia ip; assay: as above; details: endpoint: mean survival time, higher = longer survival
Outline: as §1

[3] = dose: 6.25 mg/kg/injection, schedule: Q01DX009 (ip), vehicle: Klucel (hydroxypropylcellulose) (HPC)
[4] = dose: 25.0 mg/kg/injection, schedule: Q01DX009 (ip), vehicle: Klucel (hydroxypropylcellulose) (HPC)
[5] = dose: 50.0 mg/kg/injection, schedule: Q01DX009 (ip), vehicle: Klucel (hydroxypropylcellulose) (HPC)
[6] = dose: 25.0 mg/kg/injection, schedule: Q01DX009 (ip), vehicle: saline with Tween-80
[7] = dose: 50.0 mg/kg/injection, schedule: Q01DX009 (ip), vehicle: saline with Tween-80
[8] = dose: 100.0 mg/kg/injection, schedule: Q01DX009 (ip), vehicle: saline with Tween-80
[9] = dose: 200.0 mg/kg/injection, schedule: Q01DX009 (ip), vehicle: saline with Tween-80
[10] = dose: 100.0 mg/kg/injection, schedule: Q01DX005 (ip), vehicle: saline with Tween-80
[11] = dose: 50.0 mg/kg/injection, schedule: Q04DX003 (ip), vehicle: saline
[12] = dose: 100.0 mg/kg/injection, schedule: Q04DX003 (ip), vehicle: saline
[13] = dose: 200.0 mg/kg/injection, schedule: Q04DX003 (ip), vehicle: saline
[14] = dose: 100.0 mg/kg/injection, schedule: Q04DX003 (ip), vehicle: saline with Tween-80
[15] = dose: 200.0 mg/kg/injection, schedule: Q04DX003 (ip), vehicle: saline with Tween-80
[16] = dose: 100.0 mg/kg/injection, schedule: Q01DX009 (ip), vehicle: Klucel (hydroxypropylcellulose) (HPC)
[17] = dose: 400.0 mg/kg/injection, schedule: Q04DX003 (ip), vehicle: saline with Tween-80

Measured: T/C

CC(C)(O)/C=C/C(=O)[C@](C)(O)[C@H]1[C@H](O)C[C@@]2(C)[C@@H]3CC=C4[C@@H](C=C(O)C(=O)C4(C)C)[C@]3(C)C(=O)C[C@]12C
inactive: [1]; [3] 100 % of control | [1]; dose: 6.25 mg/kg/injection, schedule: Q04DX003 (ip), vehicle: other 90 % of control | [1]; dose: 12.5 mg/kg/injection, schedule: Q04DX003 (ip), vehicle: other 104 % of control | [1]; [4] 100 % of control | [1]; dose: 25.0 mg/kg/injection, schedule: Q04DX003 (ip), vehicle: other 104 % of control | [1]; [5] 100 % of control | [1]; dose: 50.0 mg/kg/injection, schedule: Q04DX003 (ip), vehicle: other 109 % of control | [2]; dose: 1.5 mg/kg/injection, schedule: Q01DX010 (ip), vehicle: carboxymethylcellulose (CMC) 97 % of control | [2]; dose: 3.0 mg/kg/injection, schedule: Q01DX010 (ip), vehicle: carboxymethylcellulose (CMC) 99 % of control | [2]; dose: 6.0 mg/kg/injection, schedule: Q01DX010 (ip), vehicle: carboxymethylcellulose (CMC) 101 % of control

CC1(C)C(=O)C(O)=CC2C1=CCC1C2(C)C(=O)CC2(C)C(C(C)(O)C(=O)CC(O)C(C)(C)O)C(O)CC12C (stereo not given)
inactive: [2]; dose: 4.5 mg/kg/injection, schedule: Q01DX010 (ip), vehicle: carboxymethylcellulose (CMC) 95 % of control | [2]; dose: 9.0 mg/kg/injection, schedule: Q01DX010 (ip), vehicle: carboxymethylcellulose (CMC) 101 % of control | [2]; dose: 36.0 mg/kg/injection, schedule: Q01DX010 (ip), vehicle: carboxymethylcellulose (CMC) 103 % of control

CCN(CC)CCCC(C)NC(=O)c1cccc2c([N+](=O)[O-])cccc12 (stereo not given)
inactive: [2]; dose: 3.12 mg/kg/injection, schedule: Q01DX009 (ip), vehicle: water 94 % of control | [2]; dose: 12.5 mg/kg/injection, schedule: Q01DX009 (ip), vehicle: water 100 % of control | [2]; dose: 25.0 mg/kg/injection, schedule: Q01DX009 (ip), vehicle: water 110 % of control | [2]; dose: 50.0 mg/kg/injection, schedule: Q01DX009 (ip), vehicle: water 95 % of control | [2]; dose: 100.0 mg/kg/injection, schedule: Q01DX009 (ip), vehicle: water 106 % of control

CC1CCCCN1CCNc1ccc(CO)c2sc3ccccc3c(=O)c12 (stereo not given)
active: [1]; [8] 192 % of control and 210 % of control | [1]; dose: 150.0 mg/kg/injection, schedule: Q01DX009 (ip), vehicle: saline with Tween-80 278 % of control
inactive: [1]; [6] 115 % of control | [1]; dose: 44.0 mg/kg/injection, schedule: Q01DX009 (ip), vehicle: saline with Tween-80 119 % of control | [1]; [7] 119 % of control | [1]; [9] 97 % of control

CC(C)(C)OC(=O)NC(CCC(=O)O)(Cc1ccccc1)C(=O)NC(CCC(=O)OCc1ccccc1)C(=O)OCc1ccccc1 (stereo not given)
inactive: [1]; [10] 86 % of control | [1]; dose: 200.0 mg/kg/injection, schedule: Q01DX005 (ip), vehicle: saline with Tween-80 86 % of control

C=C(C)CC#N
inactive: [1]; [11] 100 % of control | [1]; [12] 109 % of control | [1]; [13] 109 % of control

CC(=O)OCC1OC(O)C(NC(=O)C(F)(F)F)C(OC(C)=O)C1OC(C)=O (stereo not given)
inactive: [1]; dose: 12.5 mg/kg/injection, schedule: Q04DX003 (ip), vehicle: saline 118 % of control | [1]; dose: 12.5 mg/kg/injection, schedule: Q## X003 (ip), vehicle: saline 104 % of control | [1]; dose: 25.0 mg/kg/injection, schedule: Q## X003 (ip), vehicle: saline 119 % of control

CC(=O)OCc1c(COC(C)=O)c(-c2ccccc2)n2c1CCC2
inactive: [1]; [3] 107 % of control

COc1cc2cc(c1Cl)N(C)C(=O)CC(OC(=O)C(C)C)C1(C)OC1C(C)C1CC(O)(NC(=O)O1)C(OC)/C=C/C=C(/C)C2OC(C)=O (stereo not given)
active: [1]; dose: 1.6 micrograms/kg/injection, schedule: Q01DX009 (ip), vehicle: saline + alcohol 162 % of control | [1]; dose: 3.1 micrograms/kg/injection, schedule: Q01DX009 (ip), vehicle: saline + alcohol 150 % of control | [1]; dose: 6.2 micrograms/kg/injection, schedule: Q01DX009 (ip), vehicle: saline + alcohol 166 % of control | [1]; dose: 12.5 micrograms/kg/injection, schedule: Q01DX009 (ip), vehicle: saline + alcohol 179 % of control | [1]; dose: 25.0 micrograms/kg/injection, schedule: Q01DX009 (ip), vehicle: saline + alcohol 170 % of control

c1cc2cccc3c2c(c1)c1sc2c4cccc5cccc(c54)c2c31
inactive: [1]; [14] 91 % of control | [1]; [15] 100 % of control

O=C(O)C(=O)O.O=C([O-])C(=O)O.O=C([O-])C(=O)O.O=C([O-])C(=O)[O-].[K+].[U]
inactive: [1]; dose: 1.02 mg/kg/injection, schedule: Q01DX009 (ip), vehicle: saline 90 % of control | [1]; dose: 1.56 mg/kg/injection, schedule: Q01DX009 (ip), vehicle: saline 91 % of control | [1]; dose: 2.34 mg/kg/injection, schedule: Q01DX009 (ip), vehicle: saline 95 % of control | [1]; dose: 6.25 mg/kg/injection, schedule: Q01DX009 (ip), vehicle: saline 95 % of control | [1]; dose: 6.25 mg/kg/injection, schedule: Q04DX003 (ip), vehicle: saline 90 % of control | [1]; dose: 12.5 mg/kg/injection, schedule: Q01DX009 (ip), vehicle: saline 100 % of control | [1]; [11] 86 % of control

O=C1CCCCC1N1CCCCC1 (stereo not given)
inactive: [1]; dose: 50.0 mg/kg/injection, schedule: Q01DX005 (ip), vehicle: saline with Tween-80 98 % of control | [1]; [10] 105 % of control

CS(=O)(=O)OCCCOS(C)(=O)=O
inactive: [1]; dose: 12.5 mg/kg/injection, schedule: Q01DX009 (ip), vehicle: Klucel (hydroxypropylcellulose) (HPC) 109 % of control | [1]; [4] 109 % of control | [1]; [5] 119 % of control | [1]; [16] 95 % of control | [1]; [12] 109 % of control | [1]; [13] 118 % of control

CC1(C)CC(=O)C=C(OCCc2ccccc2)C1
inactive: [1]; [8] 100 % of control | [1]; [9] 109 % of control | [1]; dose: 400.0 mg/kg/injection, schedule: Q01DX009 (ip), vehicle: saline with Tween-80 118 % of control

CC(C)n1cnc2c(Cl)ncnc21
inactive: [1]; [8] 100 % of control | [1]; [14] 104 % of control | [1]; [15] 95 % of control | [1]; [17] 90 % of control

C[C@]12CCC(=O)C=C1CC[C@@H]1[C@@H]2C(=O)C[C@@]2(C)[C@H]1CC[C@]2(O)C(=O)CO
inactive: [1]; [16] 108 % of control | [1]; dose: 100.0 mg/kg/injection, schedule: Q04DX003 (ip), vehicle: Klucel (hydroxypropylcellulose) (HPC) 110 % of control | [1]; dose: 200.0 mg/kg/injection, schedule: Q01DX009 (ip), vehicle: Klucel (hydroxypropylcellulose) (HPC) 108 % of control | [1]; dose: 200.0 mg/kg/injection, schedule: Q04DX003 (ip), vehicle: Klucel (hydroxypropylcellulose) (HPC) 115 % of control | [1]; dose: 400.0 mg/kg/injection, schedule: Q01DX009 (ip), vehicle: Klucel (hydroxypropylcellulose) (HPC) 87 % of control | [1]; dose: 400.0 mg/kg/injection, schedule: Q04DX003 (ip), vehicle: Klucel (hydroxypropylcellulose) (HPC) 110 % of control

C[N+](C)(C)CCO
inactive: [1]; [12] 100 % of control | [1]; [13] 105 % of control | [1]; dose: 400.0 mg/kg/injection, schedule: Q04DX003 (ip), vehicle: saline 110 % of control

CCN(CC)CCNC1=CC(=S)NC(C)(C)C1
inactive: [1]; [6] 101 % of control | [1]; [7] 89 % of control and 111 % of control | [1]; [8] 100 % of control | [1]; [9] 88 % of control and 117 % of control

CS(=O)(=O)OCCn1c(=O)n(CCOS(C)(=O)=O)c(=O)n(CCOS(C)(=O)=O)c1=O
inactive: [1]; dose: 100.0 mg/kg/injection, schedule: Q01DX009 (ip), vehicle: saline sonified 90 % of control | [1]; [14] 90 % of control | [1]; dose: 200.0 mg/kg/injection, schedule: Q01DX009 (ip), vehicle: saline sonified 110 % of control | [1]; [15] 100 % of control | [1]; dose: 400.0 mg/kg/injection, schedule: Q01DX009 (ip), vehicle: saline sonified 90 % of control | [1]; [17] 100 % of control

O=C(O)CC(O)(CC(=O)O)C(=O)O
inactive: [1]; dose: 50.0 mg/kg/injection, schedule: Q02DX005 (ip), vehicle: water 123 % of control | [1]; dose: 100.0 mg/kg/injection, schedule: Q02DX005 (ip), vehicle: water 114 % of control | [1]; dose: 400.0 mg/kg/injection, schedule: Q02DX005 (ip), vehicle: water 94 % of control

CN(C)CCCNC(=O)c1ccc2c(c1O)C(=O)c1ccccc1C2=O
inactive: [1]; dose: 50.0 mg/kg/injection, schedule: Q01DX005 (ip), vehicle: saline 118 % of control
